Laboratory results: US20140221424A1, “PHARMACEUTICAL COMPOSITIONS FOR USE IN THE TREATMENT OF CYSTIC FIBROSIS” (Vertex Pharmaceuticals Incorporated, priority 2013, published 2014)
Converted amounts (≈) assume the structure as drawn. Like-named read-outs stand apart in the source and are kept apart here.

Key:
CYP3A = assay: Drug interaction studies: other drugs on ivacaftor exposure; assay type: in vivo, human
Experimental: Drug interaction studies were performed with KALYDECO™ and other drugs likely to be co-administered or drugs commonly used as probes for pharmacokinetic interaction studies [see Drug Interactions (subsection 7 of section V)].
(§1) The data obtained for KALYDECO™ without co-administration of inducers or inhibitors are used as reference.

rats [1] = assay: Teratogenicity in rats; assay type: in vivo, rat; conditions: maternal dose 200 mg/kg/day, approximately 6 times the MRHD
From the text: (§2) There are no adequate and well-controlled studies of KALYDECO™ in pregnant women. […] Because animal reproduction studies are not always predictive of human response, KALYDECO™ should be used during pregnancy only if clearly needed.

[2] = system: CYP3A enzymes (i.e., CYP3A4 and CYP3A5); assay: Metabolism by CYP3A (in vitro and clinical studies); assay type: in vitro ADME, human; conditions: for substrate of CYP3A enzymes (CYP3A4 and CYP3A5): in vitro studies
From the text: (§3) Ivacaftor is extensively metabolized in humans. […] M1 and M6 are the two major metabolites of ivacaftor in humans. M1 has approximately one-sixth the potency of ivacaftor and is considered pharmacologically active. M6 has less than one-fiftieth the potency of ivacaftor and is not considered pharmacologically active.
as §1

G551D-CFTR protein [3] = target: T1, G551D-CFTR protein (Homo sapiens, UniProt P13569, G551D); assay: CFTR-mediated transepithelial current (IT) in rodent cells expressing G551D-CFTR; assay type: cell-based; parameters: expressed in transfected cells
T1 sequence (P13569 whole entry G551D): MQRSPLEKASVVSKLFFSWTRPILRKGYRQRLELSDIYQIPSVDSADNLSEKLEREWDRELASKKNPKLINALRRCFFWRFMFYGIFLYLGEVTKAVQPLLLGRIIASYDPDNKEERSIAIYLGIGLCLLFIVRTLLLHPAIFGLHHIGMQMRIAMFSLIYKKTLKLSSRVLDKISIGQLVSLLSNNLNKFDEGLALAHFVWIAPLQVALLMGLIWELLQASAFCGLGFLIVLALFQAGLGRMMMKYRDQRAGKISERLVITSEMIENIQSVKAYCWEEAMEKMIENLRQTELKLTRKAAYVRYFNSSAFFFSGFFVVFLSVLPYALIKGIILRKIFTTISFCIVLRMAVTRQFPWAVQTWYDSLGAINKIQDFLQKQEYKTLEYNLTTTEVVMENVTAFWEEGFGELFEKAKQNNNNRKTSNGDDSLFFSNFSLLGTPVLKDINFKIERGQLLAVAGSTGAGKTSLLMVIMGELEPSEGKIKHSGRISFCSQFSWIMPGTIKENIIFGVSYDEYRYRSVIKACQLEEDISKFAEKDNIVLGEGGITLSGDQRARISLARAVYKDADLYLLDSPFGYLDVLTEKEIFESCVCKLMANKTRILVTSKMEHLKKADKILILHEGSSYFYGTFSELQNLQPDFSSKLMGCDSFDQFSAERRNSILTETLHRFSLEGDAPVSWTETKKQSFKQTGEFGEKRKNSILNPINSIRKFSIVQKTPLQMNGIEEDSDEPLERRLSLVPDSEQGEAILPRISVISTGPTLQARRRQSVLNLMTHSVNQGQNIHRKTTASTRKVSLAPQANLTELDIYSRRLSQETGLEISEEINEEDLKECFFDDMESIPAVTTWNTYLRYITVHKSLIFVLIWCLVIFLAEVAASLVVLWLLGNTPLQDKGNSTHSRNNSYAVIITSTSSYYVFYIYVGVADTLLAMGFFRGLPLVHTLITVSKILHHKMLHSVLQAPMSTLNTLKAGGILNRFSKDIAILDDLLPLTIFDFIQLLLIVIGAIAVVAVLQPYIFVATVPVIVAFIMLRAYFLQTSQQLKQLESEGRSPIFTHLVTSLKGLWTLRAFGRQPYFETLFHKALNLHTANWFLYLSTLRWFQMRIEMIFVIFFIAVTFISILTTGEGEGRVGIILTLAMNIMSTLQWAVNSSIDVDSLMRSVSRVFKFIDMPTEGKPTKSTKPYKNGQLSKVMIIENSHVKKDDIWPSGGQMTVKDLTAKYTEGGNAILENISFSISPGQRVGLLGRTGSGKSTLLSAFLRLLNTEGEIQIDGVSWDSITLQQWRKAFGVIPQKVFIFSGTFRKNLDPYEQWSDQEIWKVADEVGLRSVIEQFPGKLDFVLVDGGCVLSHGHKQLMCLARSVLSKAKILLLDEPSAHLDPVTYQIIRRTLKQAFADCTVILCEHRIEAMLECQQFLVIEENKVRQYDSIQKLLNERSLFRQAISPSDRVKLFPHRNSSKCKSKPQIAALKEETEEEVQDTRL

Solubility in water = assay type: physicochemical; conditions: practically insoluble
From the text: Ivacaftor is a white to off-white powder that is practically insoluble in water (<0.05 microgram/mL).

pregnant rats = assay: Placental transfer in pregnant rats; assay type: in vivo, rat
From the text: as §2

juvenile rats = assay: Juvenile rat toxicology; assay type: in vivo; conditions: juvenile rats dosed postnatal day 7-35, 10 mg/kg/day and higher
From the text: This finding has not been observed in older animals.

lactating female rats = assay: Excretion into milk of lactating rats; assay type: in vivo, rat
Experimental: Excretion of ivacaftor into human milk is probable. There are no human studies that have investigated the effects of ivacaftor on breast-fed infants. Caution should be exercised when KALYDECO™ is administered to a nursing person.

bacterial gene mutation = assay: Ames test for bacterial gene mutation; assay type: cell-based
From the text: (§4) Ivacaftor was negative for genotoxicity in the following assays: Ames test for bacterial gene mutation, in vitro chromosomal aberration assay in Chinese hamster ovary cells, and in vivo mouse micronucleus test.

[4] = Pharmacokinetics in moderate hepatic impairment; assay type: in vivo, human
Experimental: Therefore, a reduced KALYDECO™ dose of 150 mg once daily is recommended for patients with moderate hepatic impairment. The impact of mild hepatic impairment (Child-Pugh Class A) on pharmacokinetics of ivacaftor has not been studied, but the increase in ivacaftor AUC0-∞ is expected to be less than two-fold. Therefore, no dose adjustment is necessary for patients with mild hepatic impairment. The impact of severe hepatic impairment (Child-Pugh Class C, score 10-15) on pharmacokinetics of ivacaftor has not been studied. […] When benefits are expected to outweigh the risks, KALYDECO™ should be used with caution in patients with severe hepatic impairment at a dose of 150 mg given once daily or less frequently.
Therefore, a reduced dose of 150 mg once daily is recommended in patients with moderate hepatic impairment.

[5] = Clinical pharmacokinetics after oral administration; assay type: in vivo, human
Experimental: After every 12 hour dosing, steady-state plasma concentrations of ivacaftor were reached by days 3 to 5, with an accumulation ratio ranging from 2.2 to 2.9.
The exposure of ivacaftor increased approximately 2- to 4-fold when given with food containing fat. Therefore, KALYDECO™ should be administered with fat-containing food. Examples of fat-containing foods include eggs, butter, peanut butter, and cheese pizza. The median (range) tmax is approximately 4.0 (3.0; 6.0) hours in the fed state.
The mean apparent volume of distribution (Vz/F) of ivacaftor after a single dose of 275 mg of KALYDECO™ in the fed state was similar for healthy subjects and patients with CF. After oral administration of 150 mg every 12 hours for 7 days to healthy volunteers in a fed state, the mean (±SD) for apparent volume of distribution was 353 (122) L.
(§5) Following oral administration, the majority of ivacaftor (87.8%) is eliminated in the feces after metabolic conversion. The major metabolites M1 and M6 accounted for approximately 65% of the total dose eliminated with 22% as M1 and 43% as M6. There was negligible urinary excretion of ivacaftor as unchanged parent. […] The mean apparent clearance (CL/F) of ivacaftor was similar for healthy subjects and patients with CF.

mice = assay: Two-year carcinogenicity study in mice; assay type: in vivo, mouse; conditions: oral doses up to 200 mg/kg/day
Experimental: (§6) Two-year studies were conducted in mice and rats to assess carcinogenic potential of KALYDECO™.

[6] = system: Chinese hamster ovary cells; assay: In vitro chromosomal aberration assay; assay type: cell-based; conditions: CHO cells
From the text: as §4

pregnant rabbits = assay: Placental transfer in pregnant rabbits; assay type: in vivo, rabbit
From the text: as §2

healthy subjects = assay: Thorough QT study (ECG evaluation); assay type: in vivo, human; conditions: 150 mg and 450 mg twice daily, 72 healthy subjects
Experimental: The highest repeated dose was 450 mg (in a tablet formulation) every 12 hours for 4.5 days (9 doses) in a trial evaluating the effect of KALYDECO™ on ECGs in healthy subjects.
The effect of multiple doses of ivacaftor 150 mg and 450 mg twice daily on QTc interval was evaluated in a randomized, placebo- and active-controlled (moxifloxacin 400 mg) four-period crossover thorough QT study in 72 healthy subjects.

rats [7] = assay: Two-year carcinogenicity study in rats; assay type: in vivo, rat; conditions: oral doses up to 50 mg/kg/day
Experimental: as §6

male and female rats = assay: Fertility and reproductive performance in rats; assay type: in vivo, rat
Experimental: Ivacaftor impaired fertility and reproductive performance indices in male and female rats at 200 mg/kg/day (approximately 5 and 6 times, respectively, the MRHD based on summed AUCs of ivacaftor and its metabolites). […] These impairments of fertility and reproductive performance in male and female rats at 200 mg/kg/day were attributed to severe toxicity.

mouse = assay: In vivo mouse micronucleus test
From the text: as §4

[8] = Elimination / human PK study with radioactivity; assay type: in vivo; conditions: for share of the total dose eliminated as this metabolite: po
From the text: as §5
KALYDECO™ has not been studied in patients with mild, moderate or severe renal impairment (creatinine clearance less than or equal to 30 mL/min) or in patients with end stage renal disease. No dose adjustments are recommended for mild and moderate renal impairment patients because of minimal elimination of ivacaftor and its metabolites in urine (only 6.6% of total radioactivity was recovered in the urine in a human PK study); however, caution is recommended when administering KALYDECO™ to patients with severe renal impairment or end stage renal disease.

G551D-CFTR protein [9] = target: T1, G551D-CFTR protein; assay: Transepithelial current (IT) in human bronchial epithelial cells expressing G551D-CFTR; assay type: cell-based; parameters: endogenous in cells; host or cells: human bronchial epithelial cells
[10] = system: patients with a G551D mutation; assay: Population PK/PD analysis (Emax model) of FEV1 versus ivacaftor exposure; parameters: species or system human; conditions: pooled Phase 2a and Phase 3 data
From the text: Therefore, median Cmin at EC90 was chosen as the target PK parameter for efficacy.

G551D-CFTR protein [11] = target: T1, G551D-CFTR protein; assay: Single channel patch clamp, membrane patches from rodent cells expressing G551D-CFTR; assay type: biochemical; parameters: expressed in transfected cells; conditions: versus untreated cells, after addition of PICA and ATP
human red blood cells = assay: Binding to red blood cells; assay type: in vitro ADME
rabbits = assay: Teratogenicity in rabbits; assay type: in vivo, rabbit; conditions: maternal dose 100 mg/kg/day, approximately 12 times the MRHD
From the text: as §2

Plasma protein binding = assay type: in vitro ADME; conditions: human
From the text: Ivacaftor is approximately 99% bound to plasma proteins, primarily to alpha 1-acid glycoprotein and albumin.

[12] = Potency of metabolites relative to ivacaftor
From the text: as §3

[13] = moderately impaired hepatic function (Child-Pugh Class B, score 7 to 9)
[14] = rats, 200 mg/kg/day, dams dosed prior to and during early pregnancy

With `CC(C)(C)c1cc(C(C)(C)C)c(NC(=O)c2c[nH]c3ccccc3c2=O)cc1O` [Ivacaftor, N-[2,4-bis(1,1-dimethylethyl)-5-hydroxyphenyl]-1,4-dihydro-4-oxoquinoline-3-carboxamide] the “increase of ivacaftor exposure” value (CYP3A; co-administration with fluconazole, a moderate inhibitor of CYP3A) was 3 fold, the “increase of ivacaftor exposure (AUC)” value (CYP3A; co-administration with ketoconazole, a strong CYP3A inhibitor) was 8.5 fold and the “decrease of ivacaftor exposure (AUC)” value (CYP3A; co-administration with rifampin, a strong CYP3A inducer) was “approximately 9 fold”. For the same compound, the teratogenic effects (rats [1]) was “not teratogenic”, the “primary route of metabolism” value ([2]; in vitro and clinical studies) was “primarily metabolized by CYP3A” and the “substrate of CYP3A enzymes (CYP3A4 and CYP3A5)” value [2] was “substrates”. The “increase of IT in the absence of cAMP agonist” value (G551D-CFTR protein [3]) was “did not increase”, the EC50 (G551D-CFTR protein [3]; following addition of a cAMP agonist, read-out: EC50, increase of CFTR-mediated transepithelial current (IT)) was 100 ± 47 nM and the solubility (Solubility in water) was under 0.05 µg/mL. For the same compound, the placental transfer (pregnant rats) was “observed”, the cataracts (juvenile rats) was “Cataracts were seen” and the excretion into milk (lactating female rats) was “excreted into the milk”. For the same compound, the genotoxicity (bacterial gene mutation) was “negative”, the AUC(0-inf) ([4]; human, in vivo, oral, single dose of 150 mg, moderately impaired hepatic function, read-out: AUC0-∞, mean (±SD)) was 16800 ng·h/mL and the Cmax ([4]; human, in vivo, oral, single dose of 150 mg, moderately impaired hepatic function, read-out: Cmax, mean (±SD)) was 735 ng/mL. For the same compound, the “Cmax compared with healthy subjects matched for demographics” value [4, 13] was “similar”, the “increase in AUC0-∞ compared with healthy subjects matched for demographics” value [4, 13] was “approximately two-fold” and the “apparent volume of distribution, mean (±SD)” value ([5]; 150 mg orally every 12 hours for 7 days, healthy volunteers, fed state) was 353 (122) L. The “increase of exposure when given with food containing fat” value ([5]; human, in vivo) was 2-4 fold, the “mean apparent clearance (CL/F), healthy subjects versus patients with CF” value ([5]; human, in vivo) was “similar” and the “pharmacokinetics, healthy adult volunteers versus patients with CF” value ([5]; human, in vivo) was “similar”. It also gave a Tmax ([5]; human, in vivo, fed state, read-out: median (range) tmax) of about 4 h, a half-life ([5]; human, in vivo, following a single dose, read-out: apparent terminal half-life (converted)) of about 12 h and an AUC ([5]; human, in vivo, single 150 mg oral dose, healthy volunteers, fed state, read-out: AUC, mean (±SD)) of 10600 ng·h/mL. The Cmax ([5]; human, in vivo, single 150 mg oral dose, healthy volunteers, fed state, read-out: Cmax, mean (±SD)) was 768 ng/mL, the Tmax ([5]; human, in vivo, single 150 mg oral dose, healthy volunteers, fed state, read-out: time of peak plasma concentrations (Tmax)) was about 4 h and the “mean apparent volume of distribution (Vz/F), healthy subjects versus patients with CF” value ([5]; single dose of 275 mg, fed state) was “similar”. For the same compound, the tumorigenicity (mice) was “No evidence of tumorigenicity”, the genotoxicity [6] was “negative” and the placental transfer (pregnant rabbits) was “observed”. The “upper bound of the one-sided 95% confidence interval for the largest placebo adjusted, baseline-corrected QTcF” value (healthy subjects) was “below 10 ms”, the tumorigenicity (rats [7]) was “No evidence of tumorigenicity” and the prolonged diestrus (male and female rats; female rats, 200 mg/kg/day) was “Increases”. The “fertility and reproductive performance indices” value (male and female rats; male and female rats, 200 mg/kg/day, attributed to severe toxicity) was “impaired”, the “fertility and reproductive performance indices” value (male and female rats; male or female rats, ≦100 mg/kg/day (approximately 3 times the MRHD)) was “No effects” and the “corpora lutea, implantations, and viable embryos” value (male and female rats; [14]) was “decreased”. For the same compound, the “number of females with all nonviable embryos” value (male and female rats; [14]) was “increased”, the genotoxicity (mouse) was “negative” and the “urinary excretion as unchanged parent” value ([8]; in vivo) was “negligible”. For the same compound, the “total radioactivity recovered in the urine” value ([8]; ivacaftor and its metabolites, human PK study) was 6.6%, the EC50 (G551D-CFTR protein [9]) was 236 ± 200 nM and the “increase of IT” value (G551D-CFTR protein [9]; human bronchial epithelial cells expressing G551D-CFTR, following addition of a cAMP agonist) was 10 fold. For the same compound, the “EC50, FEV1 versus ivacaftor exposure, Emax model” value [10] was 0.045 µg/mL (≈ 0.115 µM), the “EC90, FEV1 versus ivacaftor exposure, Emax model” value [10] was 0.405 µg/mL (≈ 1.03 µM) and the “increase of open probability of G551D-CFTR protein” value (G551D-CFTR protein [11]) was 6 fold. For the same compound, the “binding to human red blood cells” value (human red blood cells) was “does not bind”, the teratogenic effects (rabbits) was “not teratogenic” and the fraction unbound (Plasma protein binding) was about 0.01.

With `CC(C)(C)c1cc(C(C)(C)CO)c(O)cc1NC(=O)c1c[nH]c2ccccc2c1=O` [M1, hydroxymethyl-ivacaftor] the “increase of M1 exposure” value (CYP3A; ivacaftor co-administered with fluconazole) was 1.9 fold, the “increase of M1 exposure” value (CYP3A; ivacaftor co-administered with ketoconazole) was 1.7 fold and the “substrate of CYP3A enzymes (CYP3A4 and CYP3A5)” value [2] was “substrates”. The “potency relative to ivacaftor” value [12] was “approximately one-sixth” and the “share of the total dose eliminated as this metabolite” value ([8]; in vivo) was 22%.

In the case of `CC(C)(C)c1cc(C(C)(C)C(=O)O)c(O)cc1NC(=O)c1c[nH]c2ccccc2c1=O` [M6], the “potency relative to ivacaftor” value [12] is reported as “less than one-fiftieth” and the “share of the total dose eliminated as this metabolite” value ([8]; in vivo) is reported as 43%.
